{"source": "patent US20030166601A1", "about": "“Novel colloid synthetic vectors for gene therapy” (priority 1999, published 2003)", "key": {"[1]": {"system": "BL-6 cells", "assay_type": "cell-based", "conditions": "polylysine core complexes; FIG. 8"}, "[2]": {"system": "HUVEC cells", "assay": "Transfection of HUVEC cells with K14RGD/Lipofectin complexes, luciferase", "assay_type": "cell-based", "conditions": "added to lipofectin core complexes; FIG. 25", "procedure": "20000 HUVEC cells were seeded to each well of a 96 well plate and cultured for 12 hr before transfection. 0 or 2 ug of K14RGD peptide was mixed with indicated amount of Lipofectin from 0.1 ul to 4 ul in 50 ul of serum free medium for 15 min. The mixture was added to 50 ul serum free medium containing 0.5 ug pCIluc2 DNA. The poly-lipoplex was incubated for 30 min before added to the cells. The transfection solution was removed after 3 hr and serum-containing medium was added to the cells.\nAt 24 hr, luciferase activity was measured with Promega luciferase assay kit according to the recommended procedure."}, "[3]": {"system": "mouse", "assay": "In vivo transfection with cationic lipid complexes containing fusogenic or steric surfactants", "conditions": "DOTAP:Chol core complexes; FIG. 7", "procedure": "All lipids of a formulation including surfactants were dissolved in an organic solvent such as cyclohexane and mixed together at the desired ratio and then lyophilized to dryness. For example, 45 mg DOTAP and 25 mg cholesterol, or 10 mg GC-030 and 4.74 mg cholesterol were used for DOTAP:Chol and GC-030:Chol, respectively. Double distilled water was added to the lipid cake to give a final concentration of 10 mg/ml of cationic lipid (cholesterol is a neutral lipid that is not counted for calculation of lipid dispersion concentration or later for charge ratio with DNA) and allowed to hydrate at 70 C for 1 hr. The lipid dispersion was extruded through 100 nm pore carbonate membranes (Avanti Polar Lipids Inc) or vortexed for 1 min at room temperature.\nForty microgram of pCILuc was dissolved in 100 μl of 10% glucose and mixed by hand with different amount of lipids dispersion dissolved in 100 μl distilled H2O. The final concentration of Glucose is 5%. The mixing was performed by added the DNA solution to the lipid solution. The charge ratio of lipids to DNA in this mixture was indicated in the text. 200 μl of DNA/lipid complex solutions was injected into mouse tail vein. Each group had 3-5 mice. Five hours later, mice were sacrificed. […] Luciferase activity was determined by using luciferase assay system kit from Promega. […]"}}, "data": [{"compound": "GLF GAI EGF IEN GWE GWI DGW YGC KCK KKK KKK KKK KKK K [Example K14-Fuso]", "values": [{"measurement": "expression, effect of fusogenic peptide", "setting": "[1]", "value": "increased expression"}]}, {"compound": "KKK KKK KKK KKK KKS CRG DC [Example K14RGD]", "values": [{"measurement": "expression, effect of peptide ligand", "setting": "[2]", "value": "increased expression"}]}, {"compound": "CCCCCCCC/C=C\\CCCCCCCC(=O)OCCOCC(OCCO)C1OCC(OCCO)C1OCCO", "note": "(stereo not drawn) [Tween 80]", "values": [{"measurement": "gene transfer in vivo, effect of additive", "setting": "[3]", "value": "improved"}]}]}
